Experimental data from patent publication EP3666770A1, “NOVEL HETEROCYCLIC COMPOUNDS AS CDK8/19 INHIBITORS” (Joint Stock Company "Biocad", priority 2017, dated 2019).
Like-named read-outs stand apart in the source and are kept apart here.

Legend:
[1] = General cytotoxicity test on HepG2 cells; type: cell-based; conditions: human, HepG2 cells; 72 h incubation; 200 to 0.78 µM; average values of several tests; read-out: Hep-G2 CC50, mkM
Protocol: Cell viability was assessed using the above method. Table 6. […] The results are presented as average values of activity obtained in several tests.

[2] = Chemical stability in human blood plasma; type: in vitro ADME; conditions: pooled human blood plasma; 10 µM; 4 hours at 37°C; substance amount in % after thermostatting
Protocol: (§1) Chemical stability of the compounds described herein was determined in simulated gastric fluid and human blood plasma.
(§2) Determination of stability in human blood plasma was performed using pooled human blood plasma taken from ten healthy donors. The initial candidate solution (10 mM in DMSO) was diluted with pooled blood plasma to a concentration of […] (test solution). The test solution was incubated in a dry block thermostat for 4 hours at 37°C. HPLC with Agilent 1200 liquid chromatography system (Agilent, USA) was employed to determine peak areas of the compounds in test samples, said peak areas corresponding to the initial test time (prior to incubation) and the final test time (after incubation in a dry block thermostat for 4 hours at 37°C), proteins were preliminarily precipitated with acetonitrile. Chromatographic analysis was performed in a gradient elution regime with a flow rate of 1 mL/min. Substance amount in % in a sample after thermostatting was determined.

[3] = Chemical stability in simulated gastric fluid (SGF); type: physicochemical; conditions: SGF without enzymes, pH=1,4; 10 µm; 2 hours at 37°C; substance amount in % after thermostatting
Protocol: as §1
as §2, with “SGF concentrate without enzymes, pH=1,4 (Sigma Ireland, cat#01651)” for “Determination of stability in human blood plasma”, “used as simulated gastric fluid. Initial” for “performed using pooled human blood plasma taken from ten healthy donors. The initial”, “an SGF working solution” for “pooled blood plasma”, “2” for “4”, “37°C).” for “37°C), proteins were preliminarily precipitated with acetonitrile.”

MV4-11 = assay: Cell-based antiproliferative test (AlamarBlue), MV4-11; conditions: Homo sapiens, MV4-11, 120 h, read-out: MV-4-11 IC50, mkM
Protocol: Antiproliferative activity of CDK8 inhibitors according to the present invention was measured in a cell-based test on continuous cell cultures MV4-11 (biphenotypic myelomonocytic leukemia, ATCC® CRL-9591™), KG-1 (acute myeloid leukemia, ATCC® CCL-246™), HL-60 (acute promyelocytic leukemia, ATCC® CCL-240™) using a vital stain AlamarBlue (ThermoFisher, #DAL1100). The cells were grown in RPMI-1640 (PanEco, #C330p) medium with addition of 10% FBS (Gibco, #16140-071); washed and resuspended in culture medium with 10% FBS (Gibco, #16140-071) in 96-well culture plates (Corning, #3599) with ≈ 10 ×10^3 cells in […] of medium per well. The compounds in question were dissolved in DMSO and diluted with a medium with 10% FBS (Gibco, #16140-071) to a final concentration ranging form 0 to 100 µM. […] of diluted compounds were then added to each well (final DMSO concentration was less than 1%) and incubated under 5% CO2 atmosphere at 37°C for 120 h. After incubating, 15 µL of AlamarBlue (ThermoFisher, #DAL1100) reagent was added per well, contents of plates were mixed in an orbital shaker (Biosan, Latvia) and further incubated for 3-5 h at 37°C under 5% CO2 atmosphere. Number of living cells was estimated using a microplate spectrophotometer (Tecan Infinite M200Pro, Switzerland) measuring fluorescent signal at the excitation wavelength (λEx) of 540 nm and emission wavelength (λEm) of 590 nm.
IC50 was calculated using Magellan 7.2 software (Tecan, Switzerland) approximating experimental points by four-parameter logistic model with the optimization by Levenberg-Marquardt (table 7, table 7).

[4] = Enzyme stability in human liver microsomes; type: in vitro ADME; conditions: pH 7.4; 0,5 mg/mL pooled human liver microsomes; 10 µM compound; 37°C; pH=7,4
Protocol: Measuring of candidates' enzyme stability enabled estimation of the stability of the present compounds towards the action of enzymes in liver microsomes.
Enzyme degradation rate was measured by incubating the reaction mixture in a dry block thermostat at 37°C, said reaction mixture comprising 0,5 mg/mL of pooled human liver microsomes (XenoTech, USA, cat#H2620), 10 µM compound, 2 mM β-nicotinamide adenine dinucleotide (Carbosynth, UK, cat#NN10871) and 4 mM magnesium chloride in 0,1 M sodium-phosphate buffer, pH=7,4. The reaction was quenched with acetonitrile (100 µL of acetonitrile / 100 µL of the reaction mixture). After quenching, the samples were centrifuged at 10000 rpm for 10 minutes. Supernatant fluid was tested by chromatographic technique using Agilent1200 (Agilent, USA). Chromatographic analysis was performed in a gradient elution regime with a flow rate of 1 mL/min. A graph of the logarithm of substance's peak area as a function of time was made. The dependent factor of the line corresponded to the elimination rate constant K based on which the drug's half-life t1/2 and degradation rate CLint were calculated: Elimination rate constant (k) = (−gradient) [formula] [formula] V(μL/mg) = (volume of incubation(μL))/(protein in the incubation(mg)) [formula] [formula]

[5] = 120 h incubation, average values of several tests

Structure (SMILES)	CC50 at 72 h [1] [µM]	Stability in blood plasma, % [2] [%]	Stability in SGF, % [3] [%]	IC50 (MV4-11; [5]) [µM]	microsomal CLint at 10 µM [4] [µL/min/mg]	IC50 (MV4-11) [µM]
COc1ccc(-n2cnc3ccc(N4CC(C(=O)N5CCOCC5)C4)cc32)cc1 [CDK8-1-12, (1-(1-(4-Methoxyphenyl)-1H-benzo[d]imidazol-6-yl)azetidin-3-yl)(morpholino) methanone]	> 100	98	98.1	3.38	3	–
N=C(c1ccnc2ccc(-c3ccc(-c4cn[nH]c4)cc3)cc12)N1CCCCC1 [CDK8-5-4i, (6-(4-(1H-Pyrazol-4-yl)phenyl)quinolin-4-yl) (piperidin-1-yl)methanimine]	> 100	100	98.8	4.32	19	–
COCCOC(=O)c1cnc2cncc(-c3ccc(-c4cnn(C)c4)cc3)c2c1 [CDK8_3_28, 2-Methoxyethyl-5-[4-(methyl-1-H-pyrazol-4-yl)phenyl]-1,7-naphthyridine-3-carboxylate]	48.4	–	–	0.871	–	–
Cn1cc(-c2ccc(-c3cncc4ncc(C(=O)N5CCC[C@@H](O)C5)cc34)cc2)cn1 [CDK8-3-20, (R)-3-(Hydroxypiperidin-1-yl)(5-(4-(1-methyl-1H-pyrazol-4-yl)phenyl)-1,7-naphthyridin-3-yl)methanone]	–	–	–	–	–	5.04
Cn1cc(-c2ccc(-n3cnc4ccc(N5CC(C(=O)N6CCOCC6)C5)c(F)c43)cc2)cn1 [CDK8-1-20, (1-(1-(4-(1-methyl-1H-pyrazol-4-yl)phenyl)-7-fluoro-1H-benzo[d]imidazol-6-yl)azetidin-3-yl) (morpholino)methanone]	> 200	100	99.4	> 1	12.4	–
Cn1cc(-c2ccc(-c3cncc4ncc(C(=O)N5CCOCC5)cc34)cc2)cn1 [CDK8-3-33, (5-(4-(1-Methyl-1H-pyrazol-4-yl)phenyl)-1,7-naphthyridin-3-yl)(morpholino)methanone]	100	–	–	2.06	–	–
O=C(C1CN(c2ccc3ncn(-c4ccc(-c5cn[nH]c5)cc4)c3c2)C1)N1CCOCC1 [CDK8-1-4, (1-(1-(4-(1H-pyrazol-4-yl)phenyl)-1H-benzo[d]imidazol-6-yl)azetidin-3-yl) (morpholino)methanone]	> 100	100	98.2	0.7	18.8	–
CN(C)CCN(C)C(=O)c1cnc2cncc(-c3ccc(-c4cnn(C)c4)cc3)c2c1 [CDK8-3-35, N-(2-(Dimethylamino)ethyl)-N-methyl-5-(4-(1-methyl-1H-pyrazol-4-yl)phenyl)-1,7-naphthyridine-3-carboxamide]	77.4	–	–	1.84	–	–
O=C(c1ccccn1)c1c[nH]c2ncc(-c3ccc(N4CCOCC4)c(O)c3)cc12 [CDK8-4-3, (5-(3-Hydroxy-4-morpholinophenyl)-1H-pyrrolo[2,3-b]pyridin-3-yl) (pyridin-2-yl) methanone]	> 200	100	100	1.49	22	–
COC1CN(C(=O)c2ccc3nccc(-c4ccc(-c5cn[nH]c5)cc4)c3c2)C1 [CDK8-6-4, (4-(4-(1H-Pyrazol-4-yl)phenyl)quinolin-6-yl)(3-methoxyazetidin-1-yl) methanone]	66.6	100	100	7.79	16.2	–
CN1CCN(Cc2ccc(-c3ccnc4ccc(N5CCC(C)(C(N)=O)CC5)cc34)cc2)CC1 [CDK8-6-3, 4-Methyl-1-(4-(4-((4-methylpiperazin-1-yl)methyl)phenyl)quinolin-6-yl) piperidine-4-carboxamide]	> 60	–	100	3.18	18.6	–
Cn1cc(-c2ccc(-c3cncc4ncc(C(=O)N5CC[C@@H](O)C5)cc34)cc2)cn1 [CDK8-3-4, (R)-(3-Hydroxypyrrolidin-1-yl) (5-(4-(1-methyl-1H-pyrazol-4-yl)phenyl)-1,7-naphthyridin-3-yl)methanone]	76.4	100	100	7.51	–	–
CN(C)c1ccc(-c2cnc3[nH]cc(C(=O)c4cccnc4)c3c2)c(C#N)c1 [CDK8-4-26, 5-(Dimethylamino)-2-(3-nicotinoyl-1H-pyrrolo[2,3-b]pyridin-5-yl)benzonitrile]	> 100	100	100	1.28	17.6	–
Cn1cc(-c2ccc(-c3cncc4ncc(N5CC(C(=O)N6CCOCC6)C5)cc34)cc2)cn1 [CDK8-3-9, (1-(5-(4-(1-Methyl-1H-pyrazol-4-yl)phenyl)-1,7-naphthyridin-3-yl)azetidin-3-yl) (morpholino)methanone]	> 20	100	100	10	8.8	–
COCCNC(=O)c1cnc2cncc(-c3ccc(-n4ccnc4)cc3)c2c1 [CDK8-3-41]	200	–	–	0.572	–	–
O=C(c1ccnc2ccc(-c3ccc(-c4cn[nH]c4)cc3)cc12)N1CCCCC1 [CDK8-5-4, (6-(4-(1H-Pyrazol-4-yl)phenyl)quinolin-4-yl) (piperidin-1-yl)methanone]	66.1	100	99.9	9.56	37	–
CN1CCN(C(=O)c2cnc3cncc(-c4ccc(-c5cnn(C)c5)cc4)c3c2)CC1 [CDK8-3-30, (4-Methylpiperazin-1-yl)(5-(4-(1-methyl-1H-pyrazol-4-yl)phenyl)-1,7-naphthyridin-3-yl)methanone]	100	–	–	0.412	–	–
CN(C)c1ccc(-c2cnc3[nH]cc(C(=O)c4ccncc4)c3c2)cc1O [CDK8-4-9, (5-(4-(Dimethylamino)-3-hydroxyphenyl)-1H-pyrrolo.[2,3-b]pyridin-3-yl) (pyridin-4-yl)methanone]	> 200	100	99.5	2.1	21.6	–
COC(=O)c1ccc(-n2cnc3c(F)cc(N4CC(C(=O)Nc5ccccc5)C4)cc32)cc1 [CDK8-1-7E, Methyl 4-(6-(3-(phenylcarbamoyl)azetidin-1-yl)-4-fluoro-1H-benzo[d]imidazol-1-yl)benzoate]	> 100	–	–	> 2.5	–	–
